The text below walks through data of patent publication US20240190855A1 (Relay Therapeutics, Inc., priority 2021, published 2024).

The target in this test is T1, CDK2/Cyclin E complex (Homo sapiens, UniProt P24941).
T1 construct: purchased Eurofins 14-475
The test can be described thus: CDK2/Cyclin E fluorescence-based microfluidic mobility shift assay (CDK2 Biochemical Caliper Assay). To be noted: read-out: Biochemical CDK2/CyclinE Caliper IC50. The method, boiled down:
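Microfluidic mobility-shift readout after EDTA termination measured phosphorylation of fluorescent FL Peptide 18 (1.5 uM final) in a 20 hr room-temperature reaction. Compounds were tested at 11 concentrations (3-fold).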
With `COCc1cc2c(Nc3cc([C@H]4C[C@@H](OC(=O)N5[C@@H](C)CC[C@@H]5C)CO4)[nH]n3)nccn2n1` (single isomer, unassigned) [Example 581], the IC50 was ≤ 0.1 µM.

As for `CC(C)c1[nH]ncc1O[C@@H]1CO[C@H](c2cc(Nc3nccn4nccc34)n[nH]2)C1` (single isomer, unassigned) [Example 584], the IC50 fell in the range of 1 to 100 µM.

Consider `CC(C)c1[nH]ncc1O[C@H]1CO[C@@H](c2cc(Nc3nccn4nccc34)n[nH]2)C1` (single isomer, unassigned) [Example 585], for which the IC50 lay in the range of 1 to 100 µM.

As for `C[C@H]1CC[C@H](C)N1C(=O)O[C@@H]1CO[C@H](c2cc(Nc3ccc4c(c3)C(C)(C)NC4=O)n[nH]2)C1` (single isomer, unassigned) [Example 590], the IC50 was ≤ 0.1 µM.

As for `C[C@H]1CC[C@H](C)N1C(=O)O[C@H]1CO[C@@H](c2cc(Nc3ccc4c(c3)C(C)(C)NC4=O)n[nH]2)C1` (single isomer, unassigned) [Example 591], the IC50 is ≤ 0.1 µM.

Regarding `COCc1cc(C(=O)Nc2cc([C@H]3CC[C@@H](c4ncc(C)cn4)C3)[nH]n2)n(C)n1` (single isomer, unassigned) [Example 592], the IC50 fell in the range of 1 to 100 µM.

For `COCc1cc(C(=O)Nc2cc([C@@H]3CC[C@H](c4ncc(C)cn4)C3)[nH]n2)n(C)n1` (single isomer, unassigned) [Example 594], the IC50 lay in the range of 1 to 100 µM.

With `COCc1cc(C(=O)Nc2cc([C@H]3CC[C@H](c4ncc(C)cn4)C3)[nH]n2)n(C)n1` (single isomer, unassigned) [Example 595], the IC50 was in the range of 1 to 100 µM.

For `COCc1cc(C(=O)Nc2cc([C@@H]3CC[C@@H](c4ncc(C)cn4)C3)[nH]n2)n(C)n1` (single isomer, unassigned) [Example 596], the IC50 lay in the range of 1 to 100 µM.

Turning to `COCc1cc(C(=O)Nc2cc([C@H]3CC[C@@H](c4ccc(C)cn4)C3)[nH]n2)n(C)n1` (single isomer, unassigned) [Example 597], the IC50 lay within 1 to 100 µM.

As to `COCc1cc(C(=O)Nc2cc([C@@H]3CC[C@H](c4ccc(C)cn4)C3)[nH]n2)n(C)n1` (single isomer, unassigned) [Example 598], the IC50 lay in the range of 1 to 100 µM.

On to `COCc1cc(C(=O)Nc2cc([C@H]3CC[C@H](c4ccc(C)cn4)C3)[nH]n2)n(C)n1` (single isomer, unassigned) [Example 599], for which the IC50 lay in the range of 1 to 100 µM.

Take `COCc1cc(C(=O)Nc2cc([C@@H]3CC[C@@H](c4ccc(C)cn4)C3)[nH]n2)n(C)n1` (single isomer, unassigned) [Example 600]: the IC50 fell in the range of 1 to 100 µM.

For the compound `COCc1cc(C(=O)Nc2cc([C@H]3CC[C@@H](c4cc(C(C)C)ncn4)C3)[nH]n2)n(C)n1` (single isomer, unassigned) [Example 601], the IC50 fell in the range of 1 to 100 µM.

On to `COCc1cc(C(=O)Nc2cc([C@@H]3CC[C@H](c4cc(C(C)C)ncn4)C3)[nH]n2)n(C)n1` (single isomer, unassigned) [Example 602], for which the IC50 is 1 to 100 µM.

As for `COCc1cc(C(=O)Nc2cc([C@H]3CC[C@H](c4cc(C(C)C)ncn4)C3)[nH]n2)n(C)n1` (single isomer, unassigned) [Example 603], the IC50 lay within 1 to 100 µM.

For `COCc1cc(C(=O)Nc2cc([C@@H]3CC[C@@H](c4cc(C(C)C)ncn4)C3)[nH]n2)n(C)n1` (single isomer, unassigned) [Example 604], the IC50 lay in the range of 1 to 100 µM.

Turning to `COCc1cc(C(=O)Nc2cc([C@H]3CC[C@@H](c4cccc(C(C)C)n4)C3)[nH]n2)n(C)n1` (single isomer, unassigned) [Example 605], the IC50 lay within 1 to 100 µM.

On to `COCc1cc(C(=O)Nc2cc([C@@H]3CC[C@H](c4cccc(C(C)C)n4)C3)[nH]n2)n(C)n1` (single isomer, unassigned) [Example 606], for which the IC50 fell in the range of 1 to 100 µM.

Consider `COCc1cc(C(=O)Nc2cc([C@H]3CC[C@H](c4cccc(C(C)C)n4)C3)[nH]n2)n(C)n1` (single isomer, unassigned) [Example 607], for which the IC50 lay within 1 to 100 µM.

On to `COCc1cc(C(=O)Nc2cc([C@@H]3CC[C@@H](c4cccc(C(C)C)n4)C3)[nH]n2)n(C)n1` (single isomer, unassigned) [Example 608], for which the IC50 fell in the range of 1 to 100 µM.

Regarding `COCc1cc(C(=O)Nc2cc([C@H]3CC[C@@H](c4nccc(C(C)C)n4)C3)[nH]n2)n(C)n1` (single isomer, unassigned) [Example 609], the IC50 was ≤ 0.1 µM.

With `COCc1cc(C(=O)Nc2cc([C@@H]3CC[C@H](c4nccc(C(C)C)n4)C3)[nH]n2)n(C)n1` (single isomer, unassigned) [Example 610], the IC50 was ≤ 0.1 µM.

`COCc1cc(C(=O)Nc2cc([C@H]3CC[C@H](c4nccc(C(C)C)n4)C3)[nH]n2)n(C)n1` (single isomer, unassigned) [Example 611]: the IC50 lay in the range of 1 to 100 µM.

With `COCc1cc(C(=O)Nc2cc([C@@H]3CC[C@@H](c4nccc(C(C)C)n4)C3)[nH]n2)n(C)n1` (single isomer, unassigned) [Example 612], the IC50 fell in the range of 1 to 100 µM.

With `COCc1cc2c(Nc3cc([C@H]4C[C@@H](OC(=O)NC(C)(C)C)CO4)[nH]n3)nccn2n1` (single isomer, unassigned) [Example 617], the IC50 is ≤ 0.1 µM.

`COCc1cc2c(Nc3cc([C@@H]4C[C@H](OC(=O)NC(C)(C)C)CO4)[nH]n3)nccn2n1` (single isomer, unassigned) [Example 618]: the IC50 was ≤ 0.1 µM.

Consider `COCc1cc2c(Nc3cc([C@H]4C[C@@H](OC(=O)N[C@]5(C)CC5(F)F)CO4)[nH]n3)nccn2n1` (single isomer, unassigned) [Example 729], for which the IC50 is ≤ 0.1 µM.

On to `COCc1cc2c(Nc3cc([C@H]4C[C@@H](OC(=O)N[C@@]5(C)CC5(F)F)CO4)[nH]n3)nccn2n1` (single isomer, unassigned) [Example 731], for which the IC50 was ≤ 0.1 µM.

`COCc1cc2c(Nc3cc([C@H]4C[C@@H](OC(=O)N[C@@H](C)CC(F)(F)F)CO4)[nH]n3)nccn2n1` (single isomer, unassigned) [Example 739]: the IC50 is ≤ 0.1 µM.

Take `COCc1cc2c(Nc3cc([C@H]4C[C@@H](OC(=O)N[C@H](C)CC(F)(F)F)CO4)[nH]n3)nccn2n1` (single isomer, unassigned) [Example 757]: the IC50 was ≤ 0.1 µM.

With `CO[C@H](c1cc(C(=O)Nc2cc([C@H]3C[C@@H](OC(=O)NC4(C)CC4)CO3)[nH]n2)n(C)n1)C(F)(F)F` (single isomer, unassigned) [Example 889], the IC50 was 0.1 to 0.25 µM.

Turning to `CO[C@@H](c1cc(C(=O)Nc2cc([C@H]3C[C@@H](OC(=O)NC4(C)CC4)CO3)[nH]n2)n(C)n1)C(F)(F)F` (single isomer, unassigned) [Example 890], the IC50 was ≤ 0.1 µM.

As for `CO[C@@H](C)c1cc2c(Nc3cc([C@H]4C[C@@H](OC(=O)NC5(C)CC5)CO4)[nH]n3)nccn2n1` (single isomer, unassigned) [Example 891], the IC50 is ≤ 0.1 µM.

As for `CO[C@H](C)c1cc2c(Nc3cc([C@H]4C[C@@H](OC(=O)NC5(C)CC5)CO4)[nH]n3)nccn2n1` (single isomer, unassigned) [Example 892], the IC50 is ≤ 0.1 µM.

`Cn1nc(COC(F)(F)F)cc1C(=O)Nc1ncc([C@@H]2C[C@H](OC(=O)NC3(C)CC3)CO2)s1` (single isomer, unassigned) [Example 899]: the IC50 was ≤ 0.1 µM.

For the compound `COCc1cc(C(=O)Nc2ncc([C@@H]3C[C@H](OC(=O)NC4(C)CC4)CO3)s2)n(C)n1` (single isomer, unassigned) [Example 900], the IC50 is ≤ 0.1 µM.

`Cn1nc(COC(F)(F)F)cc1C(=O)Nc1ncc([C@H]2C[C@@H](OC(=O)NC3(C)CC3)CO2)s1` (single isomer, unassigned) [Example 903]: the IC50 was ≤ 0.1 µM.

For `COCc1cc(C(=O)Nc2ncc([C@H]3C[C@@H](OC(=O)NC4(C)CC4)CO3)s2)n(C)n1` (single isomer, unassigned) [Example 905], the IC50 was ≤ 0.1 µM.

Consider `Cc1cc(CC(=O)Nc2ncc(C3CCCC3)o2)on1` [Example 38], for which the IC50 was in the range of 1 to 100 µM.

In the case of `Cc1cc(CC(=O)Nc2nc(C3CCCC3)c[nH]2)on1` [Example 43], the IC50 lay within 1 to 100 µM.

As for `Cc1cc(CC(=O)Nc2cc(C3(C)CCCC3)[nH]n2)on1` [Example 47], the IC50 lay within 1 to 100 µM.

On to `Cc1cc(CC(=O)Nc2cc(C3CCCCC3)[nH]n2)on1` [Example 48], for which the IC50 was in the range of 1 to 100 µM.

For the compound `Cc1cc(CC(=O)Nc2cc([C@H]3C[C@@H]4C[C@@H]4C3)[nH]n2)on1` [Example 50], the IC50 lay within 1 to 100 µM.

Regarding `Cc1cc(CC(=O)Nc2cc(N3CC[C@H](COC(=O)NC4(C)CC4)C3)[nH]n2)on1` [Example 51], the IC50 was in the range of 1 to 100 µM.

For the compound `Cc1cc(CC(=O)Nc2cc(N3CC[C@H]3COC(=O)NC3(C)CC3)[nH]n2)on1` [Example 52], the IC50 is 1 to 100 µM.

In the case of `Cc1cc(CC(=O)Nc2cc(C3CCNCC3)[nH]n2)on1` [Example 54], the IC50 was in the range of 1 to 100 µM.

In the case of `Cc1cc(CC(=O)Nc2cc(C3CC3)[nH]n2)on1` [Example 59], the IC50 was in the range of 1 to 100 µM.

For `Cc1cc(CC(=O)Nc2cn(C3CCCC3)cn2)on1` [Example 60], the IC50 lay in the range of 1 to 100 µM.

On to `Cc1cc(CC(=O)Nc2ncn(C3CCCC3)n2)on1` [Example 61], for which the IC50 lay in the range of 1 to 100 µM.

For the compound `Cc1cc(CC(=O)Nc2cc(-c3ccccc3)[nH]n2)on1` [Example 62], the IC50 lay within 1 to 100 µM.

For the compound `Cc1cc(CC(=O)Nc2cc(C3CCCC3)[nH]n2)on1` [Example 66], the IC50 was in the range of 1 to 100 µM.

In the case of `Cc1cc(CC(=O)Nc2cc([C@H]3C[C@@H](COC(=O)NC(C)C)C3)[nH]n2)on1` [Example 125], the IC50 is ≤ 0.1 µM.

Regarding `Cc1cc(CC(=O)Nc2cc([C@H]3CC[C@@H](COC(=O)NC(C)C)CC3)[nH]n2)on1` [Example 135], the IC50 was 1 to 100 µM.

For the compound `Cc1cc(CC(=O)Nc2cc([C@H]3CC[C@@H](OC(=O)N(C(C)C)C(C)C)C3)n[nH]2)on1` [Example 147], the IC50 is ≤ 0.1 µM.

On to `Cc1cc(CC(=O)Nc2cc(-c3csc4cncnc34)[nH]n2)on1` [Example 240], for which the IC50 lay within 1 to 100 µM.
